Experimental findings from US9056111B1, “Selective efflux inhibitors and related pharmaceutical compositions and methods of treatment” (STC.UNM, priority 2011, dated 2015) are described below.

In one data set the test system is Ig-MXP3 cells. Description: Direct cytotoxicity (Toxic Dose 50) without chemotherapeutic. The format is cell-based. The conditions noted are these: Ig-MXP3 cells, inhibitor without chemotherapeutic.
Data set [1] deals with ABCG2 over-expressing Igrov1/T8 tumors. Description: ABCG2 resistant Igrov1/T8 tumor xenograft, combination with topotecan. The format is in vivo, CB-17 SCID mice. How it is done:
Specific-pathogen-free adult CB-17 female SCID mice (5-6 weeks of age) weighing 20-25 g, are purchased. Briefly, ABCG2 over-expressing Igrov1/T8 cells are injected (5×10^6 cells/mouse). Prior to injection, Igrov1/T8 cells are maintained in topotecan in order to assure continuous expression of ABCG2. Tumors are allowed to grow for 3-4 weeks or until tumor volumes are greater than ˜100 cubic millimeters, at which time they are stratified into treatment groups. Treatment is administered and we observe the size of the tumor and weight of the mouse over a 7 day period. At the end of 7 days, we: 1) sacrifice the animal; 2) measure and weigh the tumor (if present); 3) analyze the histology of the tumor as well as other organs for evidence of toxicity; and 4) measure the expression of ABCG2 receptors on the tumor to determine if in vivo growth has altered ABCG2 expression. In our initial studies, we have generally observed high survival at 4 weeks (>90%) which escalates rapidly with near 100% mortality by 6 weeks. This approach is well described elsewhere.^9
Tumor-bearing mice were injected with either 150 nM TPT, 100 nM SID 88095709 (probe resupply), or 500 nM SID 85752814 (original SMR hit).
Igrov1/T8 cells were injected into the hind limbs of CB-17 SCID mice at a concentration of 1×10^7 cells in 200 μL, n of 3 per condition. The tumor was grown until the volume was in the range of 75 mm^3 to 250 mm^3. […] Injections were repeated daily and the size of the tumor was determined as a fraction of the starting size. After four days the mice were sacrificed and any recurring tumor was verified by light microscopy examination of histological sections. Mice were studied and maintained in accordance with guidelines of our Institutional Animal Research Committee at UNM HSC.

The next data set has as its target T1, ABCB1 / ABCG2 (Homo sapiens, UniProt Q9UNQ0).
T1 sequence (Q9UNQ0 1-655): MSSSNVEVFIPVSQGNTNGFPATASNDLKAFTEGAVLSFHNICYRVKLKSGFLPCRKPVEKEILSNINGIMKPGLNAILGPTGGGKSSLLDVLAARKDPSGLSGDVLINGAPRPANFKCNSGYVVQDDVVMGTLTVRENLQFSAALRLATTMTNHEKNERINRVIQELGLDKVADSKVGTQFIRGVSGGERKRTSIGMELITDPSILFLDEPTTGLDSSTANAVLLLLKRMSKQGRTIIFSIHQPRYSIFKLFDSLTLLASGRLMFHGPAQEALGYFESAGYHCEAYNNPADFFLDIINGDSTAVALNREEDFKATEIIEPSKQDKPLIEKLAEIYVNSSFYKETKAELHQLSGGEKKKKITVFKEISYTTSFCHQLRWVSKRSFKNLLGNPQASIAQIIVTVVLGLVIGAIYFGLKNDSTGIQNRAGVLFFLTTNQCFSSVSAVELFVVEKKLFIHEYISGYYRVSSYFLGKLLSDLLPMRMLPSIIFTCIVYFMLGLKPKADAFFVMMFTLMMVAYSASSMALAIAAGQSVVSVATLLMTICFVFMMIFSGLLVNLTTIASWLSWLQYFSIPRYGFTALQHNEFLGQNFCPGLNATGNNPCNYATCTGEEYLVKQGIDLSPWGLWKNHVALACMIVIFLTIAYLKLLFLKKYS
Description: JC-1 efflux inhibition dose response, flow cytometry, Ig-MXP3 cells. The following applies: human, probe JC-1 (1 µM), ~Fold G2 Selective (B1/G2), quotient of average ABCB1 IC50 and average ABCG2 IC50, efflux assay. A digest of the protocol: (§1)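 Ig-MXP3 (ABCG2) and Jurkat-DNR (ABCB1) cells, run separately, are pre-stained with 1 μM JC-1 and added to compound in PBS; retained dye is read by high-throughput flow cytometry with time-gated analysis.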
Background: Flow cytometry measures light scatter and fluorescence of single cells or particles in a stream.

A further data set has as its target ABCB1 (Homo sapiens, UniProt P08183). Description: JC-1 efflux inhibition dose response, flow cytometry, Jurkat-DNR cells. The following applies: for IC50: IC50 ABCB1 (efflux inhibition of JC-1 substrate), Jurkat-DNR cells over-expressing ABCB1, averages of two to four replicates. A digest of the protocol:
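Jurkat-DNR cells pre-stained with 1 μM JC-1 were incubated with compound (final 50 μM to 69 nM, […]) at 1×10^6 cells/mL, rotated 30 min at 25° C. Retained JC-1 read by flow cytometry (488 nm excitation, 530/40 nm emission). Curves fitted to a four-parameter logistic.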

In the next data set the test system is Jurkat-DNR cells. Description: Direct cytotoxicity (Toxic Dose 50) without chemotherapeutic. The following applies: Jurkat-DNR cells, inhibitor without chemotherapeutic. How it is done:
Cells (ABCB1, Jurkat-DNR or ABCG2 Ig-MXP3) are incubated with the test compound (3 order of magnitude concentration range) over a 3-day and 7-day period in the presence of the inhibitor and chemotherapeutic (ABCB1, DNR or ABCG2 MTX), such that a cell concentration of at least 1×10^5 cells/mL is maintained. Cell viability is determined by trypan blue staining and enumeration under light microscopy. […] A chemoreversal index (Chemoreversal 50, CR50) is determined from the viability assessment. Using a similar approach, a direct cytotoxicity index (Toxic Dose 50, TD50) is determined by assessment of cell death of cells grown in media alone.
Cells (ABCB1, Jurkat-DNR or ABCG2 Ig-MXP3) were incubated with the test compound in a 3 order of magnitude concentration range over three and seven day periods in the presence of the inhibitor and chemotherapeutic (ABCB1, 100 nM DNR or ABCG2 30 nM MTX), such that a cell concentration of at least 1×10^5 cells mL^−1 was maintained. Cell viability was determined by trypan blue staining and enumeration under light microscopy. […] A chemoreversal index (Chemoreversal 50, CR50) was determined from the viability assessment. Using a similar approach, a direct cytotoxicity index (Toxic Dose 50, TD50) was determined by assessment of cell death of cells grown in media alone.

Data set [2] concerns resistant Igrov1/T8 cells. Description: Topotecan killing of resistant cells. The format is cell-based. The following applies: Homo sapiens, IGROV-1.
The next data set concerns parental Igrov1 cells. The experiment in a line: Topotecan killing of parental cells. The format is cell-based. The conditions noted are these: Homo sapiens, IGROV-1.
The test system of data set [3] is ABCG2 over-expressing Ig-MXP3 cells. Description: Chemoreversal assay: potentiation of mitoxantrone (MTX) killing. The format is cell-based. The conditions noted are these: Ig-MXP3 cells, constant 30 nM MTX, varied inhibitor dose; read-out: CR50 ABCG2.
Another data set has as its target T2, ABCG2 (Homo sapiens, UniProt Q9UNQ0).
T2 sequence (Q9UNQ0 1-655): T1 sequence (Q9UNQ0 1-655)
Description: JC-1 efflux inhibition dose response, flow cytometry, Ig-MXP3 cells. A digest of the protocol: as §1

Data set [4] deals with ABCB1 over-expressing Jurkat-DNR cells. Description: Chemoreversal assay: potentiation of daunorubicin (DNR) killing. The following applies: constant 100 nM DNR, varied inhibitor dose, read-out: CR50 ABCB1. The format is cell-based.

Entries after “also recorded” stand apart in the source; their conditions may differ.

ABCB1, sequence (P08183 whole entry): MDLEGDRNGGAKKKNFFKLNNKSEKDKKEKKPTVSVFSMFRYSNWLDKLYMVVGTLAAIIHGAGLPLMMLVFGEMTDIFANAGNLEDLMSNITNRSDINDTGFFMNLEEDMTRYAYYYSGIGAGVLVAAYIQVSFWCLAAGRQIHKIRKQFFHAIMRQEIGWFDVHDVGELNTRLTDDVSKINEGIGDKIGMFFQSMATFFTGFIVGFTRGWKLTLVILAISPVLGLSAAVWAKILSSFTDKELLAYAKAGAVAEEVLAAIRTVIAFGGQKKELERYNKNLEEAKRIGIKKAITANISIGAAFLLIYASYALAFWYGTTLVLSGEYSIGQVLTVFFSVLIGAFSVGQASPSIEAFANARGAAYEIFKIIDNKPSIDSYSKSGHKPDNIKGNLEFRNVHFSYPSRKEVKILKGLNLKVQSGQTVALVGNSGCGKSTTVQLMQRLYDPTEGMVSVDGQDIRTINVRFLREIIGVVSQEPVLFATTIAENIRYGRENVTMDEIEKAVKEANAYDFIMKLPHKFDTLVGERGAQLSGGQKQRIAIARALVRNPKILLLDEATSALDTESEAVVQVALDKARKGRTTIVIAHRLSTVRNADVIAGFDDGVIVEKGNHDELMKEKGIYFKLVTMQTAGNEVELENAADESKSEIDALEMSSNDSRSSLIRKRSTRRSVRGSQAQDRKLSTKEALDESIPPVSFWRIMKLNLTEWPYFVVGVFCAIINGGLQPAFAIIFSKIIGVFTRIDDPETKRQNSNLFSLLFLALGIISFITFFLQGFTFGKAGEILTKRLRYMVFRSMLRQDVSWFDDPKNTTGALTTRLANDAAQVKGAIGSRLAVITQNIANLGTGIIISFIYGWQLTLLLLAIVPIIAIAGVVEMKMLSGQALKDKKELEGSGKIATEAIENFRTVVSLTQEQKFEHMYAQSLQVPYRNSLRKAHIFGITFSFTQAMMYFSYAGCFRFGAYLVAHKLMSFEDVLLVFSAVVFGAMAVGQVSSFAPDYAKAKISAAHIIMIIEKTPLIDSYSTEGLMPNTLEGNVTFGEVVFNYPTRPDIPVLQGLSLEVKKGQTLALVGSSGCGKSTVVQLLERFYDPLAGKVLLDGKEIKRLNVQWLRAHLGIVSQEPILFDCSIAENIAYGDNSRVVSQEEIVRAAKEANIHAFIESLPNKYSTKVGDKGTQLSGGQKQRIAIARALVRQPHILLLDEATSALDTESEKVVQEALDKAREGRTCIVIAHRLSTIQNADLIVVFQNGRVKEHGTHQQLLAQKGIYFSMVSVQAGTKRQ

For the compound `COc1cccc(-c2cc3nc(C)c(C)c(N4CCN(Cc5ccoc5)CC4)n3n2)c1` [SID 97301789], the “TD50 ABCG2” value with Ig-MXP3 cells was more than 100 µM. In addition, in data set [1] (100 nM topotecan + 100 nM compound intra-tumorally every 24 hours, 5 days (120 hours), n=5), the “Tumor size reduced by” value is on record as 55%. For the same compound, the “tumor size, inhibitor alone” value in data set [1] (inhibitor alone (100 nM or 500 nM as printed), Example 3) was “No reduction in size”. Besides, at ABCB1 / ABCG2, the selectivity ratio at 30 min came out at 233. In addition, the “efflux inhibition activity ABCB1” value on ABCB1 (JC-1 efflux, Jurkat-DNR) is on record as “abolished activity”. The “TD50 ABCB1” value in the data set with Jurkat-DNR cells was more than 100 µM.
Turning to `CC[C@@]1(O)C(=O)OCc2c1cc1n(c2=O)Cc2cc3c(CN(C)C)c(O)ccc3nc2-1` [Topotecan, reference compound], the EC50 in data set [2] was determined as 311 nM; with parental Igrov1 cells, 7 nM. The “tumor size, topotecan alone” value in [1] (100 nM topotecan alone, Example 3) is recorded as “No reduction in size”. Further, the “tumor size, single agent” value in [1] (150 nM TPT, 100 nM SID 88095709 or 500 nM SID 85752814 alone, listed as TPT) is reported as “remained the same or increased; also recorded: did not affect the growth of tumors”.
In the case of `O=C(c1ccoc1)N1CCN(c2cc(-c3cccnc3)nc3cc(-c4cccc(Cl)c4)nn23)CC1` [Compound 30], in the data set on Ig-MXP3 cells, the “TD50 ABCG2” value was found to be 5.77 µM. Besides, the figures for the EC50 in data set [3] and in [4] were 20 nM and 200 nM, respectively. In addition, the IC50 (commonly the midpoint of a concentration-inhibition curve) amounted to 270 ± 120 nM against ABCG2 and 770 ± 280 nM at ABCB1. Also, the selectivity ratio at 30 min on ABCB1 / ABCG2 stood at 2.9. For the same compound, the “TD50 ABCB1” value in the data set on Jurkat-DNR cells is 5.33 µM.
Consider `COc1cccc(-c2cc3nc(-c4ccco4)cc(N4CCN(C(C)=O)CC4)n3n2)c1` [Compound 88], for which the “TD50 ABCG2” value in the data set with Ig-MXP3 cells was more than 100 µM. Also, the EC50 came out at 1180 nM in [3] and 320 nM in data set [4]. For the same compound, the IC50 worked out at 1900 nM at ABCG2 and 1640 nM at ABCB1. For the same compound, the selectivity ratio at 30 min on ABCB1 / ABCG2 amounted to 0.9. For the same compound, the “TD50 ABCB1” value in the data set on Jurkat-DNR cells is 49.30 µM.
As to `O=C(c1ccncc1)N1CCN(c2cc(-c3ccccc3)nc3cc(-c4cccc(Cl)c4)nn23)CC1` [Compound 21], the “TD50 ABCG2” value in the data set with Ig-MXP3 cells was 28.30 µM. Also, the EC50 in data set [3] was 150 nM; in data set [4], 250 nM. The results for the IC50 against ABCG2 and on ABCB1 were 1030 ± 230 nM and 1160 ± 300 nM, respectively. For the same compound, on ABCB1 / ABCG2, the selectivity ratio at 30 min came out at 1.1. The “TD50 ABCB1” value in the data set on Jurkat-DNR cells is 10.90 µM.
`CC(=O)N1CCN(c2cc(-c3ccco3)nc3cc(-c4ccccc4)nn23)CC1` [Compound 74]: in the data set with Ig-MXP3 cells, the “TD50 ABCG2” value is more than 100 µM. Also, the EC50 in data set [3] amounted to 930 nM; in [4], 190 nM. Also, the IC50 is 520 nM at ABCG2 and 3640 nM against ABCB1. Also, at ABCB1 / ABCG2, the selectivity ratio at 30 min came out at 7. The “TD50 ABCB1” value in the data set with Jurkat-DNR cells was 10.10 µM.
